Laboratory results: patent publication US10375956B2, “Herbicidally active 2-(substituted-phenyl)-cyclopentane-1,3-dione compounds and derivatives thereof” (Syngenta Limited, priority 2013, dated 2019)

What was measured:
Assay type in all cases: in vivo
[1] = test system: Glycine max (GLXMA, soybean); assay: Test 2 glasshouse assay (IF50 formulation, X-77), post-emergence herbicidal activity; conditions: 360 h, 15 DAA, visual score, read-out: Post-emergence herbicidal activity (percentage phytotoxicity) GLXMA
Procedure, shortened: (§1)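 Plants grown ~12 days (range 10-13) in glasshouse (cool species 20/16° C., warm 24/18° C. day/night; 16 h light; 65% humidity), then sprayed post-emergence with IF50 formulation in aqueous 0.2% v/v X-77. Visual percentage phytotoxicity scored 15 days after application (100% = total damage, 0% = none).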

[2] = test system: Brassica napus (BRSNN, rape); assay: as above; conditions: 360 h, 15 DAA, visual score, read-out: Post-emergence herbicidal activity (percentage phytotoxicity) BRSNN
Procedure, shortened: as §1

[3] = test system: Triticum aestivum (TRZAW, winter wheat); assay: as above; conditions: 360 h, 15 DAA, visual score, read-out: Post-emergence herbicidal activity (percentage phytotoxicity) TRZAW
Procedure, shortened: as §1

[4] = test system: Beta vulgaris (BEAVA, sugarbeet); assay: as above; conditions: 360 h, 15 DAA, visual score, read-out: Post-emergence herbicidal activity (percentage phytotoxicity) BEAVA
Procedure, shortened: as §1

Setaria faberi (SETFA) = assay: Test 1 glasshouse assay, post-emergence herbicidal activity; conditions: 312 h, post-emergence (Example 1B Table 1), after 13 days, read-out: Percentage phytotoxicity SETFA
Procedure, shortened: (§2)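 Plants sprayed post-emergence after 8 days' growth with active ingredient in acetone/water (50:50) plus 0.5% Tween 20; glasshouse at 24/16° C day/night, 14 h light, 65% humidity. Visual percentage phytotoxicity scored 13 days later (100% = total damage, 0% = none).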

[5] = test system: Zea mays (ZEAMX, corn/maize); assay: as above; conditions: 312 h, post-emergence (Example 1B Table 1), after 13 days, read-out: Percentage phytotoxicity ZEAMX
Procedure, shortened: as §2

[6] = test system: Amaranthus retroflexus (AMARE); assay: as above; conditions: 312 h, post-emergence (Example 1B Table 1), after 13 days, read-out: Percentage phytotoxicity AMARE
Procedure, shortened: as §2

[7] = test system: Alopecurus myosuroides (ALOMY); assay: Test 2 glasshouse assay (IF50 formulation, X-77), post-emergence herbicidal activity; conditions: 360 h, 15 DAA, visual score, read-out: Post-emergence herbicidal activity (percentage phytotoxicity) ALOMY
Procedure, shortened: (§3)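 Plants in soil pots were sprayed 1 day (pre-emergence) or ~12 days (post-emergence) after sowing with IF50 formulation diluted in 0.2% v/v X-77. Cool species were grown at 20/16 °C day/night, 16 h light, 65% humidity. Visual % phytotoxicity was scored at 20DAA (pre) or 15DAA (post).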

Lolium perenne (LOLPE) = assay: as above; conditions: 360 h, 15 DAA, visual score, read-out: Post-emergence herbicidal activity (percentage phytotoxicity) LOLPE
Procedure, shortened: as §3

Avena fatua (AVEFA) = assay: as above; conditions: 360 h, 15 DAA, visual score, read-out: Post-emergence herbicidal activity (percentage phytotoxicity) AVEFA
Procedure, shortened: as §3

[8] = test system: Echinochloa crus-galli (ECHCG); assay: as above; conditions: 360 h, 15 DAA, visual score, read-out: Post-emergence herbicidal activity (percentage phytotoxicity) ECHCG
Procedure, shortened: (§4)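 Sow in soil → 1 d (pre) or ~12 d (post) at 24/18 °C, 16 h light, 65% RH → spray IF50 (50 g/L stock) in 0.2% v/v X-77, concentration set by application rate → water twice daily → visual % phytotoxicity 20DAA (pre) or 15DAA (post).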

[9] = test system: Panicum miliaceum (PANMI); assay: as above; conditions: 360 h, 15 DAA, visual score, read-out: Post-emergence herbicidal activity (percentage phytotoxicity) PANMI
Procedure, shortened: as §4

C#CCC1CC(=O)C(c2cc(-c3ncc(Cl)cn3)ccc2C)C1=O (stereo not drawn) [Compound A19]
plant injury at 250 g/ha ([1]; application rate 250 g/ha): 20%
plant injury at 250 g/ha ([2]; application rate 250 g/ha): 10%
plant injury at 250 g/ha ([3]; application rate 250 g/ha): 30%
plant injury at 250 g/ha ([4]; application rate 250 g/ha): 0%
pest or weed control at 30 g/ha (Setaria faberi (SETFA)): 70%
pest or weed control at 250 g/ha (Setaria faberi (SETFA)): 90%
pest or weed control at 30 g/ha [5]: 40%
pest or weed control at 250 g/ha [5]: 30%
pest or weed control at 30 g/ha [6]: 0%
pest or weed control at 250 g/ha [6]: 20%
pest or weed control at 250 g/ha ([7]; application rate 250 g/ha): 40%
pest or weed control at 250 g/ha (Lolium perenne (LOLPE); application rate 250 g/ha): 10%
pest or weed control at 250 g/ha (Avena fatua (AVEFA); application rate 250 g/ha): 10%
pest or weed control at 250 g/ha ([8]; application rate 250 g/ha): 70%
pest or weed control at 250 g/ha ([9]; application rate 250 g/ha): 70%

C#CCC1CC(=O)C(c2c(F)cc(-c3ccc(F)c(F)c3)cc2OC)C1=O (stereo not drawn) [Compound A22]
plant injury at 30 g/ha ([1]; application rate 30 g/ha): 0%
plant injury at 125 g/ha ([1]; application rate 125 g/ha): 40%
plant injury at 30 g/ha ([2]; application rate 30 g/ha): 50%
plant injury at 125 g/ha ([2]; application rate 125 g/ha): 70%
plant injury at 30 g/ha ([3]; application rate 30 g/ha): 20%
plant injury at 125 g/ha ([3]; application rate 125 g/ha): 70%
plant injury at 30 g/ha ([4]; application rate 30 g/ha): 0%
plant injury at 125 g/ha ([4]; application rate 125 g/ha): 0%
pest or weed control at 30 g/ha (Setaria faberi (SETFA)): 90%
pest or weed control at 250 g/ha (Setaria faberi (SETFA)): 100%
pest or weed control at 30 g/ha [5]: 100%
pest or weed control at 250 g/ha [5]: 100%
pest or weed control at 30 g/ha [6]: 10%
pest or weed control at 250 g/ha [6]: 80%
pest or weed control at 30 g/ha ([7]; application rate 30 g/ha): 50%
pest or weed control at 125 g/ha ([7]; application rate 125 g/ha): 70%
pest or weed control at 30 g/ha (Lolium perenne (LOLPE); application rate 30 g/ha): 10%
pest or weed control at 125 g/ha (Lolium perenne (LOLPE); application rate 125 g/ha): 50%
pest or weed control at 30 g/ha (Avena fatua (AVEFA); application rate 30 g/ha): 0%
pest or weed control at 125 g/ha (Avena fatua (AVEFA); application rate 125 g/ha): 70%
pest or weed control at 30 g/ha ([8]; application rate 30 g/ha): 70%
pest or weed control at 125 g/ha ([8]; application rate 125 g/ha): 100%
pest or weed control at 30 g/ha ([9]; application rate 30 g/ha): 60%
pest or weed control at 125 g/ha ([9]; application rate 125 g/ha): 100%
